In ChEMBL document CHEMBL1154399, “Induction of voriconazole metabolism by rifampin in a patient with acute myeloid leukemia: importance of interdisciplinary communication to prevent treatment errors with complex medications” (Antimicrob Agents Chemother, 2007):

Assays:
Assay type in all cases: ADME, organism-based
Homo sapiens [1] = test: Induction of voriconazole metabolism in po dosed […] infection patient assessed as increase in voriconazole N-oxide metabolite levels after 30 days; conditions: in vivo, 720 h
Homo sapiens [2] = test: Effect on voriconazole metabolism in po dosed […] infection patient assessed as decrease in voriconazole exposure levels after 30 days; parameters: scale not given: the % may be the effect or the level left; conditions: in vivo, 720 h
Homo sapiens [3] = test: Induction of voriconazole metabolism in po dosed […] infection patient assessed as increase in hydroxyvoriconazole levels after 30 days; conditions: in vivo, 720 h
Homo sapiens [4] = test: Induction of voriconazole metabolism in po dosed […] infection patient assessed as increase in dihydroxyvoriconazole levels after 30 days; conditions: in vivo, 720 h
[5] = Cmax in […] infection patient at 400 mg, po administered daily after 36 days of drug therapy and 30 days of rifampin coadministration; parameters: dose 400 mg, route oral; conditions: human, in vivo
[6] = AUC (0 to infinity) in […] infection patient at 400 mg, po administered daily; parameters: dose 400 mg, route oral, time infinity; conditions: human, plasma
[7] = Cmax in […] infection patient at 400 mg, po administered daily; parameters: dose 400 mg, route oral; conditions: human, in vivo
[8] = AUC (0 to infinity) in […] infection patient at 400 mg, po administered daily after 36 days of drug therapy and 30 days of rifampin coadministration; parameters: dose 400 mg, route oral, time infinity; conditions: human, plasma

Structure (SMILES)	fold change (FC) (Homo sapiens [1])	Activity (Homo sapiens [2]) [%]	fold change (FC) (Homo sapiens [3])	fold change (FC) (Homo sapiens [4])	Cmax [5] [ng/mL]	AUC(0-inf) [6] [ng·h/mL]	Cmax [7] [ng/mL]	AUC(0-inf) [8] [ng·h/mL]
CO[C@H]1/C=C/O[C@@]2(C)Oc3c(C)c(O)c4c(O)c(c(/C=N/N5CCN(C)CC5)c(O)c4c3C2=O)NC(=O)/C(C)=C\C=C\[C@H](C)[C@H](O)[C@@H](C)[C@@H](O)[C@@H](C)[C@H](OC(C)=O)[C@@H]1C [RIFAMPIN]	45	99	178	422	–	–	–	–
C[C@@H](c1ncncc1F)[C@](O)(Cn1cncn1)c1ccc(F)cc1F [VORICONAZOLE]	–	–	–	–	38	27400	3920	145
